How the values were obtained:
[1] = test system: Mycobacterium tuberculosis extensively drug-resistant (XDR) strain; assay: microbe, parasite or virus in culture; format: cell-based; settings: 192 h, read-out: Anti-tubercular activity against Mycobacterium tuberculosis (MIC), XDR
[2] = test system: Mycobacterium tuberculosis multidrug-resistant (MDR) strain; assay: microbe, parasite or virus in culture; format: cell-based; settings: 192 h, read-out: Anti-tubercular activity against Mycobacterium tuberculosis (MIC), MDR

Compound: N#Cc1ccc(C(=O)C[n+]2ccc(C#N)cc2)cc1.[Br-] [Compound 3f, 4-Cyano-1-(2-(4-cyanophenyl)-2-oxoethyl)pyridin-1-ium bromide]
- MIC [1]: 32 µg/mL
- MIC [2]: 4 µg/mL

From patent publication US12202801B1 (priority 2023, dated 2025)
